Source: patent US11744269B2, “Vegetable and fruit wash formulation and uses thereof” (priority 2020, dated 2023)

Key:
[1] = system: Staphylococcus aureus ATCC 6538; assay: Zone of Inhibition Assay for Staphylococcus aureus ATCC 6538; assay type: cell-based
Protocol: (§1) The anti-microbial efficacy of VFW composition is evaluated by finding its zone of inhibition against Staphylococcus Aureus, Escherichia coli, Candida Albicans and Aspergillus Niger and compared with zone of inhibition of standard antibiotics known to be very potent in eliminating the subject microorganism.
as §1, with “albicans” for “Albicans”, “niger” for “Niger”
Staphylococcus aureus is a gram-positive, round-shaped bacterium found as dominant genera on the surfaces of vegetables and fruits. The assay was performed for the culture of Staphylococcus aureus ATCC 6538. Ciplox is known to be very effective in eliminating this strain. It was used as standard antibiotic.

[2] = system: crown rot disease in Banana; assay: Crown rotting evaluation of bananas washed in industrial set-up (banana plantation); conditions: bananas soaked 30 minutes maximum in 2% VFW solution in water or NaClO solution in water
Protocol: As crown rot progresses, fruits like banana begins to soften and blacken and induces early ripening of fruits.
The crown-rot and fruit blackening studies are conducted to determine the efficacy of the Vegetable and Fruit Wash to protect the fruits from the so-called disease and also from premature ripening. This study is also conducted to determine the efficacy of the present invention in prolonging the life of the fruits, i.e. in increasing the shelf life of the fruits.
A batch of bananas is washed using 2% of Vegetable and Fruit Wash solution in water. The bananas are soaked in the solution for 30 minutes maximum, rinsed, dried and packed and are observed after 2 weeks of washing and after 4 weeks of washing post-delivery and ripening. Another batch of bananas are washed using Sodium Hypochlorite (NaClO) solution in water as per the industry standard washing procedure. The bananas are soaked in the solution for 30 minutes maximum, rinsed, dried and packed. They are observed after 2 weeks of washing and after 4 weeks of washing post delivery and ripening.

Escherichia coli 8739 = assay: Zone of Inhibition Assay for Escherichia coli 8739; assay type: cell-based
Protocol: as §1
as §1, with “albicans” for “Albicans”, “niger” for “Niger”
20-30% of food-poisoning outbreaks linked to disease causing strains of the bacterium Escherichia coli are caused by people eating contaminated vegetables. The assay was performed for the culture of Escherichia coli 8739. Gentamicin is known to be very effective in eliminating this strain and is used as standard antibiotic.

Candida albicans 10231 = assay: Zone of Inhibition Assay for Candida albicans 10231; assay type: cell-based
Protocol: Candida albicans is opportunistic pathogenic yeast found to have growth on fruits rich in sugar content like bananas, dates, grapes, mango, and dried fruit. The zone of inhibition assay is performed for the culture of Candida albicans 10231.

## O=C(O)c1cn(C2CC2)c2cc(N3CCNCC3)c(F)cc2c1=O [Ciplox]
[1]
  Zone of Inhibition (mm): 27.64 mm

## OCl [NaClO, Sodium Hypochlorite]
[2]
  Number of Rotten Crowns 2 weeks after Washing: 1
  Number of Rotten Crowns 4 weeks after Washing: 3
  Number of Rotten Crowns after Ripening: 5

## Gentamicin
Escherichia coli 8739
  Zone of Inhibition (mm): 24.54 mm

## Zinc pyrithione [ZPTO]
Candida albicans 10231
  Zone of Inhibition (mm): 24.37 mm
